Test results published in patent US9686985B2, “Fungicide N-cycloalkyl-N-bicyclicmethylene-carboxamide derivatives” (BAYER INTELLECTUAL PROPERTY GMBH, priority 2012, dated 2017).

Key:
Sphaerotheca fuliginea = assay: Example B: in vivo preventive test on Sphaerotheca fuliginea (powdery mildew on cucurbits); conditions: table B; 500 ppm; gherkin plants; grading 12 days after contamination
Protocol: Example B: In Vivo Preventive Test on Sphaerotheca fuliginea (Powdery Mildew on Cucurbits) […] Gherkin plants (“Vert petit de Paris” variety), sown in starter cups on a 50/50 peat soil-pozzolana substrate and grown at 24° C., are treated at the Z11 cotyledon stage by spraying with the active ingredient prepared as described above. Plants, used as controls, are treated with the mixture of acetone/tween/DMSO/water not containing the active material. After 24 hours, the plants are contaminated by spraying the cotyledons with an aqueous suspension of Sphaerotheca fuliginea spores (100 000 spores per mL). The spores are collected from infected plants. The contaminated gherkin plants are incubated at about 20° C. and at 70-80% relative humidity. Grading (% of efficacy) is carried out 12 days after the contamination, in comparison with the control plants.

[1] = log P by HPLC on reversed-phase column (EEC Directive 79/831 Annex V.A8); assay type: physicochemical; conditions: for logP: Table 1, HPLC C18, 40° C., 0.1% aqueous formic acid and acetonitrile gradient
Protocol: In table 1, the log P values were determined in accordance with EEC Directive 79/831 Annex V.A8 by HPLC (High Performance Liquid Chromatography) on a reversed-phase column (C 18), using the method described below: Temperature: 40° C.; Mobile phases: 0.1% aqueous formic acid and acetonitrile; linear gradient from 10% acetonitrile to 90% acetonitrile. Calibration was carried out using unbranched alkan-2-ones (comprising 3 to 16 carbon atoms) with known log P values (determination of the log P values by the retention times using linear interpolation between two successive alkanones). lambda-max-values were determined using UV-spectra from 200 nm to 400 nm and the peak values of the chromatographic signals.

Uromyces appendiculatus = assay: Example G: in vivo preventive test on Uromyces appendiculatus (bean rust); conditions: bean plants
Protocol: Example G: In Vivo Preventive Test on Uromyces appendiculatus (Bean Rust) […] Bean plants (“Saxa” variety), sown in starter cups on a 50/50 peat soil pozzolana substrate and grown at 24° C., are treated at the 2 leaf stage (9 cm height) by spraying with the active ingredient prepared as described above. Plants, used as controls, are treated with the mixture of acetone/tween/DMSO/water not containing the active material. After 24 hours, the plants are contaminated by spraying the leaves with an aqueous suspension of Uromyces appendiculatus spores (150 000 spores per mL). The spores are collected from infected plants and are suspended in water containing 2.5 mL/L of Tween 80 at 10%. The contaminated bean plants are incubated for 24 hours at 20° C. and at 100% relative humidity, and then for 10 days at 20° C. and at 70-80% relative humidity. Grading (% of efficacy) is carried out 11 days after the contamination, in comparison with the control plants.

Puccinia recondita = assay: Example R: in vivo preventive test on Puccinia recondita (brown rust on wheat); conditions: table R; 500 ppm; wheat plants; grading 12 days after contamination
Protocol: Example R: In Vivo Preventive Test on Puccinia recondita (Brown Rust on Wheat) […] Wheat plants (“Scipion” variety), sown in starter cups on a 50/50 peat soil pozzolana substrate and grown at 22° C., are treated at the 1 leaf stage (10 cm height) by spraying with the active ingredient prepared as described above. Plants, used as controls, are treated with the mixture of acetone/tween/DMSO/water not containing the active material. After 24 hours, the plants are contaminated by spraying the leaves with an aqueous suspension of Puccinia recondita spores (100 000 spores per mL). The spores are collected from an infected plant and are suspended in water containing 2.5 mL/L of Tween 80 at 10%. The contaminated wheat plants are incubated for 24 hours at 20° C. and at 100% relative humidity, and then for 10 days at 20° C. and at 70-80% relative humidity. Grading (% of efficacy) is carried out 12 days after the contamination, in comparison with the control plants.

Pyrenophora teres = assay: Example N: in vivo preventive test on Pyrenophora teres (barley); conditions: table N; 500 ppm; barley plants; grading 14 days after contamination
Protocol: Example N: In Vivo Preventive Test on Pyrenophora teres (Barley) […] Barley plants (“Plaisant” variety), sown in starter cups on a 50/50 peat soil pozzolana substrate and grown at 22° C., are treated at the 1 leaf stage (10 cm height) by spraying with the active ingredient prepared as described above. Plants, used as controls, are treated with the mixture of acetone/tween/DMSO/water not containing the active material. After 24 hours, the plants are contaminated by spraying the leaves with an aqueous suspension of Pyrenophora teres spores (12 000 spores per mL). The spores are collected from a 12-day-old culture. The contaminated barley plants are incubated for 48 hours at 20° C. and at 100% relative humidity, and then for 12 days at 20° C. at 70-80% relative humidity. Grading (% of efficacy) is carried out 14 days after the contamination, in comparison with the control plants.

Septoria tritici = assay: Example L: in vivo preventive test on Septoria tritici (wheat); conditions: table L; 500 ppm; wheat plants; grading 24 days after contamination
Protocol: Example L: In Vivo Preventive Test on Septoria tritici (Wheat) […] Wheat plants (“Scipion” variety), sown in starter cups on a 50/50 peat soil pozzolana substrate and grown at 22° C., are treated at the 1 leaf stage (10 cm height) by spraying with the active ingredient prepared as described above. Plants, used as controls, are treated with the mixture of acetone/tween/DMSO/water not containing the active material. After 24 hours, the plants are contaminated by spraying the leaves with an aqueous suspension of cryopreserved Septoria tritici spores (500 000 spores per mL). The contaminated wheat plants are incubated for 72 hours at 18° C. and at 100% relative humidity, and then for 21 days at 90% relative humidity. Grading (% of efficacy) is carried out 24 days after the contamination, in comparison with the control plants.

Alternaria brassicae = assay: Example D: in vivo preventive test on Alternaria brassicae (leaf spot on radish); conditions: table D; 500 ppm; radish plants; grading 6 days after contamination
Protocol: Example D: In Vivo Preventive Test on Alternaria brassicae (Leaf Spot on Radish) […] Radish plants (“Pernod Clair” variety), sown in starter cups on a 50/50 peat soil pozzolana substrate and grown at 17° C., are treated at the cotyledon stage by spraying with the active ingredient prepared as described above. Plants, used as controls, are treated with the mixture of acetone/tween/DMSO/water not containing the active material. After 24 hours, the plants are contaminated by spraying the cotyledons with an aqueous suspension of Alternaria brassicae spores (50 000 spores per mL). The spores are collected from a 15-day-old culture. The contaminated radish plants are incubated at 20° C. and at 100% relative humidity. Grading (% of efficacy) is carried out 6 days after the contamination, in comparison with the control plants.

Botrytis cinerea = assay: Example S: in vivo preventive test on Botrytis cinerea (grey mould); conditions: table S; 500 ppm; gherkin plants; grading 4 to 5 days after contamination
Protocol: Example S: In Vivo Preventive Test on Botrytis cinerea (Grey Mould) […] Gherkin plants (“Vert petit de Paris” variety), sown in starter cups on a 50/50 peat soil pozzolana substrate and grown at 24° C., are treated at the Z11 cotyledon stage by spraying with the active ingredient prepared as described above. Plants, used as controls, are treated with the mixture of acetone/tween/DMSO/water not containing the active material. After 24 hours, the plants are contaminated by spraying the cotyledons with an aqueous suspension of cryopreserved Botrytis cinerea spores (50 000 spores per mL). The spores are suspended in a nutrient solution composed of 10 g/L of PDB, 50 g/L of D-Fructose, 2 g/L of NH4NO3 and 1 g/L of KH2PO4. The contaminated gherkin plants are incubated at 17° C. and at 90% relative humidity. Grading (% of efficacy) is carried out 4 to 5 days after the contamination, in comparison with the control plants.

[2] = table G1, 500 ppm, grading 11 days after contamination

Structure (SMILES)	Efficacy (Sphaerotheca fuliginea) [%]	logP [1]	Efficacy (Uromyces appendiculatus; [2]) [%]	Efficacy (Puccinia recondita) [%]	Efficacy (Pyrenophora teres) [%]	Efficacy (Septoria tritici) [%]	Efficacy (Uromyces appendiculatus; table G2, dose 100 ppm) [%]	Efficacy (Uromyces appendiculatus; table G2, dose 500 ppm) [%]	Efficacy (Alternaria brassicae) [%]	chromatographic logP [1]	Efficacy (Botrytis cinerea) [%]
Cn1nc(C(F)F)c(C(=O)N(CC2CCc3ccccc32)C2CC2)c1Cl (stereo not shown) [I.1]	83	3.51	72	88	86						
Cn1nc(C(F)F)c(C(=O)N(CC2CCc3ccccc32)C2CC2)c1F (stereo not shown) [I.2]	100	3.35	100	100	100	100	88	100	100		
Cc1cccc2c1CCC2CN(C(=O)c1c(C(F)F)nn(C)c1Cl)C1CC1 (stereo not shown) [I.4]		3.87			71	79			75		
Cc1ccc2c(c1)CCC2CN(C(=O)c1c(C(F)F)nn(C)c1Cl)C1CC1 (stereo not shown) [I.5]	100	3.94		75	86						
Cc1ccc2c(c1)CCC2CN(C(=O)c1c(C(F)F)nn(C)c1F)C1CC1 (stereo not shown) [I.6]	100	3.76	100	100	100	97	69	100	97		
Cn1nc(C(F)F)c(C(=O)N(CC2CCc3c(F)cccc32)C2CC2)c1F (stereo not shown) [I.7]	100	3.39	100	94	97	93	98	100	97		
Cn1nc(C(F)F)c(C(=O)N(CC2CC(C)(C)c3ccccc32)C2CC2)c1F (stereo not shown) [I.9]	100	3.94		100	97	97	100		100		
Cn1nc(C(F)F)c(C(=O)N(CC2CC(C)(C)c3ccccc32)C2CC2)c1Cl (stereo not shown) [I.10]	100	4.08	99	88	86	79			92		
Cn1nc(C(F)F)c(C(=O)N(CC2CCc3cc(Cl)ccc32)C2CC2)c1F (stereo not shown) [I.12]	100	3.83	100	81	100	93	19	100	100		
Cn1nc(C(F)F)c(C(=O)N(CC2CCc3cc(Cl)ccc32)C2CC2)c1Cl (stereo not shown) [I.13]	78	3.99			86				75		
Cn1nc(C(F)F)c(C(=O)N(CC2CCc3c(Cl)cc(Cl)cc32)C2CC2)c1F (stereo not shown) [I.18]	100	4.39	100	94	100	93			100		
Cn1nc(C(F)F)c(C(=O)N(CC2CCc3c(Cl)cc(Cl)cc32)C2CC2)c1Cl (stereo not shown) [I.19]		4.59	100	88	71				92		
CC1CCC(CN(C(=O)c2c(C(F)F)nn(C)c2Cl)C2CC2)c2ccccc21 (stereo not shown) [I.25]		4.11			94				94		
COc1cccc2c1CCCC2CN(C(=O)c1c(C(F)F)nn(C)c1F)C1CC1 (stereo not shown) [I.26, N-cyclopropyl-3-(difluoromethyl)-5-fluoro-N-[(5-methoxy-1,2,3,4-tetrahydronaphthalen-1-yl)methyl]-1-methyl-1H-pyrazole-4-carboxamide]	100				100				100	3.65	100
COc1cccc2c1CCCC2CN(C(=S)c1c(C(F)F)nn(C)c1F)C1CC1 (stereo not shown) [I.27]	80	4.46			71	97			93		
Cn1nc(C(F)F)c(C(=O)N(CC2CCCc3cccc(Cl)c32)C2CC2)c1F (stereo not shown) [I.28]	100	4.09	88		94	100			100		100
Cn1nc(C(F)F)c(C(=O)N(CC2CSCc3ccccc32)C2CC2)c1F (stereo not shown) [I.34]	90	3.21			94	93			100		100
Cn1nc(C(F)F)c(C(=O)N(CC2CCSc3ccc(F)cc32)C2CC2)c1F (stereo not shown) [I.35]	80	3.44	100	78	98				88		100
